Data: patent publication US5057520A, “7-(peptidylpyrolidinyl)naphthyridine antibacterial compounds” (Abbott Laboratories, priority 1989, dated 1991)
Converted amounts (≈) assume the structure as drawn. Structures can show the parent of a compound that is named as a salt.

How the values were obtained:
Stap. Aureus CMX 553 = assay: Second in vitro MIC test, Brain Heart Infusion Broth (BHIB); assay type: cell-based
E. Coli Juhl [1] = assay: as above; assay type: cell-based
Ps. Aeruginosa A5007 = assay: as above; assay type: cell-based
P. Aeruginosa A5007 = assay: Acute mouse protection test; assay type: in vivo; details: mice infected i.p. with P. Aeruginosa A5007, observed 7 days; for SC (ED50): SC dosing at 1 and 5 hours post-infection; for Oral (ED50): oral dosing at 1 and 5 hours post-infection
Stap. Aureus NCTC 10649 = assay: Acute mouse protection test; assay type: in vivo; details: mice infected i.p. with Stap. Aureus NCTC 10649, observed 7 days; for SC (ED50): SC dosing at 1 and 5 hours post-infection; for Oral (ED50): oral dosing at 1 and 5 hours post-infection
[2] = Conversion of prodrug to parent drug in whole blood at 37° C.; assay type: in vitro ADME, Dog
Method: An aqueous solution of prodrug (Z) is spiked into fresh whole blood containing sodium heparin as an anticoagulant. The sample is mixed gently by inversion and placed in a 37° waterbath. At selected time intervals an 0.5 ml aliquot of blood is removed and placed in a chilled 1.5 ml centrifuge tube (ice temperature). Samples are centrifuges at 13,000 rpm for two minutes to separate plasma. An 0.2 ml aliquot of the plasma sample is combined with 0.2 ml internal standard (7-(4-amino-2-methyl-1-pyrrolidinyl)-1-(2,4-difluorophenyl)-6-fluoro-1,4-d ihydro-4-oxo-1,8-naphthyridine-3-carboxylic acid in 0.2M sodium phosphate pH 7.2 buffer) and 6 mls CH2 Cl2 :EtoH (9:1 by volume). Samples are capped and shaken gently for 10 minutes. Samples are centrifuges at 2500 rpm for 10 minutes (4° C.). The aqueous layer is aspirated to waste and the organic layer is transferred to a conical centrifuge tube and evaporated to dryness with a stream of dry air and low heat ([…]). Samples are reconstituted with 0.2 ml mobile phase followed by vortexing. Samples are centrifuges at 2500 rpm for 10 minutes to separate precipitate. The supernatant is transferred to a WISP vial with plastic insert for HPLC analysis.

E. Coli Juhl [3] = assay: Acute mouse protection test; assay type: in vivo; details: mice infected i.p. with E. Coli JUHL, observed 7 days; for SC (ED50): SC dosing at 1 and 5 hours post-infection; for Oral (ED50): oral dosing at 1 and 5 hours post-infection
Strep. pyogenes EES 61 = assay: Second in vitro MIC test, Brain Heart Infusion Broth (BHIB); assay type: cell-based

Compound	MIC (Stap. Aureus CMX 553)	MIC (E. Coli Juhl [1])	MIC (Ps. Aeruginosa A5007)	SC (ED50) (P. Aeruginosa A5007)	Oral (ED50) (P. Aeruginosa A5007)	SC (ED50) (Stap. Aureus NCTC 10649)	Oral (ED50) (Stap. Aureus NCTC 10649)	Half Life Dog [2]	Solubility pH 7.4	SC (ED50) (E. Coli Juhl [3])	Oral (ED50) (E. Coli Juhl [3])	MIC (Strep. pyogenes EES 61)
CC(N)C(=O)NC(Cc1ccccc1)C(=O)NC1CCN(c2nc3c(cc2F)c(=O)c(C(=O)O)cn3-c2ccc(F)cc2F)C1 (stereo not drawn) [Example 11]	16.0 µg/mL (≈ 25.7 µM)	16 µg/mL (≈ 25.7 µM)	128 µg/mL (≈ 206 µM)	9.7 mg/kg/day	65.3 mg/kg/day	0.7 mg/kg/day	2.0 mg/kg/day	10.4 m	0.59 mg/ml	–	–	–
CC(C)C(N)C(=O)NC1CCN(c2nc3c(cc2F)c(=O)c(C(=O)O)cn3-c2ccc(F)cc2F)C1 (stereo not drawn) [Example 19]	–	–	–	–	–	–	–	–	0.41 mg/ml	–	–	–
CCCC(N)C(=O)NC1CCN(c2cc3c(cc2F)c(=O)c(C(=O)O)cn3-c2ccc(F)cc2F)C1 (stereo not drawn) [Example 26b]	–	–	–	6.7 mg/kg/day	18.2 mg/kg/day	0.8 mg/kg/day	27.9 mg/kg/day	43.4 s	–	–	–	–
CCC[C@H](N)C(=O)NC1CCN(c2nc3c(cc2F)c(=O)c(C(=O)O)cn3CC)C1 (stereo partly drawn) [Example 26ff]	–	–	–	10.3 mg/kg/day	30.5 mg/kg/day	–	–	92.6 s	–	–	–	–
CCCC(N)C(=O)NC1CCN(c2cc3c(cc2F)c(=O)c(C(=O)O)cn3-c2ccc(F)cc2)C1 (stereo not drawn) [Example 26h]	–	0.78 µg/mL (≈ 1.61 µM)	–	8.5 mg/kg/day	101.3 mg/kg/day	1.0 mg/kg/day	4.0 mg/kg/day	51.1 s	–	0.8 mg/kg/day	12.1 mg/kg/day	–
CCCC(N)C(=O)NC1CCN(c2nc3c(cc2F)c(=O)c(C(=O)O)cn3-c2ccc(F)cc2)C1 (stereo not drawn) [Example 26i]	–	–	–	–	–	0.7 mg/kg/day	5.3 mg/kg/day	108.1 s	–	–	–	1.56 µg/mL (≈ 3.21 µM)
Cl.NCC(=O)N[C@@H](Cc1ccccc1)C(=O)NC1CCN(c2cc3c(cc2F)c(=O)c(C(=O)O)cn3-c2ccc(F)cc2F)C1 (stereo partly drawn) [Example 26jj, 1-(2,4-Difluorophenyl)-6-Fluoro-7-(3-Gly-L-Phe-Amino-1-Pyrrolidinyl)-1,4-Di hydro-4-Oxo-Quinoline-3-Carboxylic Acid Hydrochloride]	–	16 µg/mL	–	–	–	–	–	–	–	–	–	–
CCCC(N)C(=O)NC1CCN(c2cc3c(cc2F)c(=O)c(C(=O)O)cn3C2CC2)C1 (stereo not drawn) [Example 26l]	–	–	–	2.8 mg/kg/day	18.2 mg/kg/day	4.0 mg/kg/day	–	118.5 s	–	0.5 mg/kg/day	9.4 mg/kg/day	–
CC(C)CC(N)C(=O)NC1CCN(c2nc3c(cc2F)c(=O)c(C(=O)O)cn3C2CC2)C1 (stereo not drawn) [Example 26o]	–	–	–	3.9 mg/kg/day	6.2 mg/kg/day	1.0 mg/kg/day	4.0 mg/kg/day	108.6 s	–	0.2 mg/kg/day	1.2 mg/kg/day	–
CCCC(N)C(=O)NC1CCN(c2nc3c(cc2F)c(=O)c(C(=O)O)cn3C2CC2)C1 (stereo not drawn) [Example 26p]	–	–	–	2.8 mg/kg/day	9.1 mg/kg/day	6.8 mg/kg/day	4.5 mg/kg/day	70.1 s	–	–	–	–
CCCC(N)C(=O)NC1CCN(c2c(F)cc3c(=O)c(C(=O)O)cn(C4CC4)c3c2F)C1 (stereo not drawn) [Example 26r]	–	–	–	2.7 mg/kg/day	7.3 mg/kg/day	0.9 mg/kg/day	3.0 mg/kg/day	71.7 s	–	0.2 mg/kg/day	2.3 mg/kg/day	–
CC(N)C(=O)NC1CCN(c2c(F)cc3c(=O)c(C(=O)O)cn(C4CC4)c3c2F)C1 (stereo not drawn) [Example 26s]	–	–	–	2.4 mg/kg/day	5.0 mg/kg/day	1.3 mg/kg/day	4.8 mg/kg/day	–	–	0.1 mg/kg/day	1.8 mg/kg/day	–
CS(=O)(=O)CC[C@H](N)C(=O)NC1CCN(c2nc3c(cc2F)c(=O)c(C(=O)O)cn3-c2ccc(F)cc2F)C1 (stereo partly drawn) [Example 31c, 7-[3-L-Methioninesulfone-Amino-1-Pyrrolidinyl]-1-(2,4-Difluorophenyl)-6-Flu oro-1,4-Dihydro-4-Oxo 1.8-Naphthyridine-3-Carboxylic Acid Hydrochloride]	–	–	–	2.4 mg/kg/day	7.8 mg/kg/day	0.5 mg/kg/day	1.8 mg/kg/day	–	–	0.2 mg/kg/day	1.8 mg/kg/day	25 µg/mL
NC(=O)C[C@H](N)C(=O)NC1CCN(c2nc3c(cc2F)c(=O)c(C(=O)O)cn3-c2ccc(F)cc2F)C1 (stereo partly drawn) [Example 41, 7-(3-L-Asparagine-amino-1-pyrrolidinyl)-1-(2,4-difluorophenyl)-6-fluoro-1,4-dihydro-4-oxo-1,8-naphthyridine-3-carboxylic acid hydrochloride]	–	–	–	2.8 mg/kg/day	17.2 mg/kg/day	0.7 mg/kg/day	2.9 mg/kg/day	–	–	–	–	–
N[C@@H](Cc1cnc[nH]1)C(=O)NC1CCN(c2nc3c(cc2F)c(=O)c(C(=O)O)cn3-c2ccc(F)cc2F)C1 (stereo partly drawn) [Example 44c, 7-(3-L-histidine-amino-1-pyrrolidinyl)-1-(2,4-difluorophenyl)-6-fluoro-1,4-dihydro-4-oxo-1,8-naphthyridine-3-carboxylic acid hydrochloride]	–	–	> 64 µg/mL	8.3 mg/kg/day	51.3 mg/kg/day	0.7 mg/kg/day	4.0 mg/kg/day	–	–	–	–	–
N[C@@H](CC(=O)O)C(=O)NC1CCN(c2nc3c(cc2F)c(=O)c(C(=O)O)cn3-c2ccc(F)cc2F)C1 (stereo partly drawn) [Example 45, 7-(3-L-Asp-amino-1-pyrrolidinyl)-1-(2,4-difluorophenyl)-6-fluoro-1,4-dihyd ro-4-oxo-1,8-naphthyridine-3-carboxylic acid hydrochloride]	–	–	–	6.6 mg/kg/day	13.0 mg/kg/day	0.7 mg/kg/day	1.5 mg/kg/day	–	2.40 mg/ml	–	–	–
Cl.Cl.NCCCC[C@H](N)C(=O)NC1CCN(c2nc3c(cc2F)c(=O)c(C(=O)O)cn3-c2ccc(F)cc2F)C1 (stereo partly drawn) [Example 46, 7-(3-Lys-amino-1-pyrrolidinyl)-1-(2,4-difluorophenyl)-6-fluoro-1,4-dihydro-4-oxo-1,8-naphthyridine-3-carboxylic acid dihydrochloride]	100 µg/mL	–	> 100 µg/mL	4.5 mg/kg/day	12.5 mg/kg/day	0.7 mg/kg/day	3.4 mg/kg/day	46 m	–	–	–	100 µg/mL
CSCC[C@H](NC(=O)[C@H](C)N)C(=O)NC1CCN(c2nc3c(cc2F)c(=O)c(C(=O)O)cn3-c2ccc(F)cc2F)C1 (stereo partly drawn) [Example 55n, 7-(3-Ala-Met-amino-1-pyrrolidinyl)-6-fluoro-1-(2,4-difluorophenyl)-1,4-dih ydro-4-oxo-1,8-naphthyridine-3-carboxylic acid]	–	–	–	–	–	–	–	–	2.50 mg/ml	–	–	–
CSCC[C@H](NC(=O)[C@@H](N)CCSC)C(=O)NC1CCN(c2nc3c(cc2F)c(=O)c(C(=O)O)cn3-c2ccc(F)cc2F)C1 (stereo partly drawn) [Example 55o, 7-(3-Met-Met-amino-1-pyrrolidinyl)-6-fluoro-1-(2,4-difluorophenyl)-1,4-dih ydro-4-oxo-1,8-naphthyridine-3-carboxylic acid]	–	–	–	–	–	–	–	–	0.31 mg/ml	–	–	–
CSCC[C@H](NC(=O)[C@@H](N)CC(C)C)C(=O)NC1CCN(c2nc3c(cc2F)c(=O)c(C(=O)O)cn3-c2ccc(F)cc2F)C1 (stereo partly drawn) [Example 55p, 7-(3-Leu-Met-amino-1-pyrrolidinyl)-6-fluoro-1-(2,4-difluorophenyl)-1,4-dih ydro-4-oxo-1,8-naphthyridine-3-carboxylic acid]	–	–	–	–	–	–	–	–	0.06 mg/ml	–	–	–
CC(C)C[C@H](NC(=O)[C@@H](N)CC(C)C)C(=O)NC1CCN(c2nc3c(cc2F)c(=O)c(C(=O)O)cn3-c2ccc(F)cc2F)C1 (stereo partly drawn) [Example 55q, 7-(3 Leu-Leu-amino-1-pyrrolidinyl)-6-fluoro-1-(2,4-difluorophenyl)-1,4-dihydro- 4-oxo-1,8-naphthyridine-3-carboxylic acid]	–	–	–	–	–	–	–	–	0.19 mg/ml	–	–	–
CC(C)C[C@H](NC(=O)[C@H](C)N)C(=O)NC1CCN(c2nc3c(cc2F)c(=O)c(C(=O)O)cn3-c2ccc(F)cc2F)C1 (stereo partly drawn) [Example 55r, 7-(3-Ala-Leu-amino-1-pyrrolidinyl)-6-fluoro-1-(2,4-difluorophenyl)-1,4-dih ydro-4-oxo-1,8-naphthyridine-3-carboxylic acid]	–	–	–	–	–	–	–	–	2.0 mg/ml	–	–	–
